The test system of the test is Plasmodium berghei. The test is described as follows: Luciferase/luciferin-expressing antifolate-resistant parasites were used to infect a culture of HepG2 cells that were pre-incubated with compounds. Infected hepatocytes emit light due to the luciferase reaction. Assay results are presented as the percent inhibition of light emission compared to control. […]. The test is classed as functional. The following applies: sporozoite; for IC90: read-out: LUCIFERASE INFECTION ASSAY - IC90.

[1] abbreviates: read-out: LUCIFERASE INFECTION ASSAY - IC50.

SMILES strings stand for the structures.

As for `CC(C)c1ccc2c(c1)/C(=N/NC(=S)NCCc1ccccc1)C(=O)N2`, the IC90 (usually the concentration needed for an effect of 90%) came out at 8.12 µM. In addition, the IC50 (as a rule, the concentration that gives 50% inhibition) (FFLUC_HILL_SLOPE 19.2, FFLUC_R_SQUARED 0.695, HEPG2TOX_HILL_SLOPE 7.84, HEPG2TOX_R_SQUARED 0.253, PBLUC_HILL_SLOPE 4.58, PBLUC_R_SQUARED 0.343, read-out: LUCIFERASE INFECTION ASSAY - IC50) is 5.02 µM.
Consider `COc1ccc(Nc2ccnc3cc(Cl)ccc23)cc1OC`, for which the concentration for an effect of 90% (IC90) is more than 10 µM. Besides, the IC50 under setting [1] is 7.03 µM.
For `COc1ccc2c(COC(=O)c3[nH]c(C)c(C(C)=O)c3C)cc(=O)oc2c1`, in that order: more than 10 µM and more than 10 µM.
In the case of `CCc1ccc(NC(=O)Cc2nc(-c3ccc4c(c3)CCCN4S(C)(=O)=O)cs2)cc1`, the IC90 is more than 10 µM. In addition, where the note is “HEPG2TOX_HILL_SLOPE 9.08, HEPG2TOX_R_SQUARED 0.0527, PBLUC_HILL_SLOPE 1.74, PBLUC_R_SQUARED 0.25, read-out: LUCIFERASE INFECTION ASSAY - IC50”, the IC50 came out at 5.76 µM.
`O=C(Nc1ccc(-n2cnc3ccccc32)cc1)c1ccc(NC(=O)C2CC2)cc1`: the concentration for an effect of 90% (IC90) was more than 10 µM. Besides, under “HEPG2TOX_HILL_SLOPE 1.98, HEPG2TOX_R_SQUARED 0.988, PBLUC_HILL_SLOPE 3.86, PBLUC_R_SQUARED 0.781, read-out: LUCIFERASE INFECTION ASSAY - IC50”, the IC50 was determined as 6.59 µM.
As for `O=C(Nc1ccccc1C(=O)Nc1nnc(C(F)(F)F)s1)c1ccccc1Cl`, the IC90 is 2.71 µM. The IC50 (HEPG2TOX_HILL_SLOPE 2.99, HEPG2TOX_R_SQUARED 0.762, PBLUC_HILL_SLOPE 9.09, PBLUC_R_SQUARED 0.594, read-out: LUCIFERASE INFECTION ASSAY - IC50) is 2.13 µM.
With `O=C(Nc1ccccc1)Nc1cccc(Cl)c1`, the IC90 is more than 13.4 µM. Also, the IC50 under setting [1] is more than 13.4 µM.
In the case of `Cc1ccc(-c2cc(C(=O)N(C)Cc3ccc(C(=O)NC4CC4)cc3)on2)cc1`, the IC90 is more than 10 µM. Moreover, the IC50 under setting [1] is more than 10 µM.
In the case of `Cc1cc(NC(=O)C(c2ccc(Cl)cc2)C(C)C)ccc1Br` (configuration not stated), the IC90 is more than 10 µM. Besides, the IC50 under setting [1] was more than 10 µM.
In the case of `CCOc1ccc(NS(=O)(=O)c2ccc(NC(=O)c3ccc(OC)c(S(=O)(=O)N4CCCCC4C)c3)cc2)cc1` (configuration not stated), the IC90 was more than 10 µM. For the same compound, the IC50 (PBLUC_HILL_SLOPE 11.8, PBLUC_R_SQUARED 0.201, read-out: LUCIFERASE INFECTION ASSAY - IC50) was 9.44 µM.
Consider `CCc1cccc(NC(=O)c2cc(C3CC3)nc3c2c(C)nn3C)c1`, for which the IC90 was more than 10 µM. For the same compound, under setting [1], the IC50 is more than 10 µM.
Regarding `CCNC(=O)c1cccc(Nc2nc(C(F)(F)F)nc3ccccc23)c1`, the IC90 was more than 10 µM. Also, under setting [1], the IC50 is more than 10 µM.
In the case of `COc1ccccc1NC(=O)NCc1nc(-c2ccccc2)c[nH]1`, the IC90 is 5.1 µM. Besides, the IC50 (HEPG2TOX_HILL_SLOPE 5.47, HEPG2TOX_R_SQUARED 0.951, PBLUC_HILL_SLOPE 7.77, PBLUC_R_SQUARED 0.194, read-out: LUCIFERASE INFECTION ASSAY - IC50) is 3.84 µM.
As for `Cc1c(C)n(CCCO)c2ncn3nc(-c4ccccc4O)nc3c12`, the IC90 is 0.862 µM. The IC50 (FFLUC_HILL_SLOPE 0.508, FFLUC_R_SQUARED 0.752, HEPG2TOX_HILL_SLOPE 10.5, HEPG2TOX_R_SQUARED 0.849, PBLUC_HILL_SLOPE 1, PBLUC_R_SQUARED 0.894, read-out: LUCIFERASE INFECTION ASSAY - IC50) came out at 0.0964 µM.
`Cn1c(Nc2cccc(C(F)(F)F)c2)nc2cnc(-c3ccc(N)nc3)cc21`: the IC90 was more than 10 µM. In addition, under “PBLUC_HILL_SLOPE 1.84, PBLUC_R_SQUARED 0.0919, read-out: LUCIFERASE INFECTION ASSAY - IC50”, the IC50 is more than 10 µM.
Regarding `O=C(Nc1ncccc1O)c1ccc(-n2ccnc2)cc1`, the IC90 worked out at 8.71 µM. In addition, the half-inhibitory concentration (IC50) (PBLUC_HILL_SLOPE 2.04, 2.50, 2.35, PBLUC_R_SQUARED 0.554, 0.491, 0.399, read-out: LUCIFERASE INFECTION ASSAY - IC50) turned out to be 3.31 µM.
`CC(C)(C)c1csc(NC(=O)Nc2ccccc2)n1`: the IC90 is more than 12 µM. The IC50 (HEPG2TOX_HILL_SLOPE 1.38, HEPG2TOX_R_SQUARED 0.755, PBLUC_HILL_SLOPE 7.68, PBLUC_R_SQUARED 0.272, read-out: LUCIFERASE INFECTION ASSAY - IC50) stood at 9.6 µM.
As to `CC(C)NC(=O)c1c(NC(=O)c2ccc(C(F)(F)F)cc2)nc2ccccn12`, the IC90 worked out at 1.46 µM. Further, the IC50 (FFLUC_HILL_SLOPE 4.65, FFLUC_R_SQUARED 0.42, HEPG2TOX_HILL_SLOPE 0.706, HEPG2TOX_R_SQUARED 0.931, PBLUC_HILL_SLOPE 2.98, PBLUC_R_SQUARED 0.635, read-out: LUCIFERASE INFECTION ASSAY - IC50) is 0.698 µM.
`Cc1ccc2nc(-c3ccc(N(C)C)cc3)[nH]c2c1`: the IC90 worked out at 5.96 µM. Further, for the setting “FFLUC_HILL_SLOPE 0.944, FFLUC_R_SQUARED 0.925, PBLUC_HILL_SLOPE 0.907, PBLUC_R_SQUARED 0.785, read-out: LUCIFERASE INFECTION ASSAY - IC50”, the IC50 was found to be 0.53 µM.
Regarding `CCN(CC)c1ccc(NC(=O)c2cccc(N3C(=O)c4ccccc4C3=O)c2)cc1S(=O)(=O)Nc1ccccc1OC`, the IC90 was more than 10 µM. Further, the concentration for half-maximal inhibition (IC50) (FFLUC_HILL_SLOPE 15.4, FFLUC_R_SQUARED 0.773, PBLUC_HILL_SLOPE 13.2, PBLUC_R_SQUARED 0.21, read-out: LUCIFERASE INFECTION ASSAY - IC50) was 9.38 µM.
Regarding `Cc1ccc2c(c1)C(c1ccccc1C(F)(F)F)CC(=O)N2` (configuration not stated), the 90% effect concentration (IC90) was more than 10.8 µM. The IC50 (HEPG2TOX_HILL_SLOPE 2.11, HEPG2TOX_R_SQUARED 0.713, PBLUC_HILL_SLOPE 2.64, PBLUC_R_SQUARED 0.143, read-out: LUCIFERASE INFECTION ASSAY - IC50) was 5.8 µM.
Regarding `Cc1cc(C(=O)N2CCc3sccc3C2)c2c(C)noc2n1`, the IC90 is more than 10 µM. The IC50 (PBLUC_HILL_SLOPE 3.72, PBLUC_R_SQUARED 0.0188, read-out: LUCIFERASE INFECTION ASSAY - IC50) was more than 10 µM.
Consider `CC1=C(C(=O)c2ccc(Cl)cc2)C(c2ccc(C(F)(F)F)cc2)NC(=O)N1` (configuration not stated), for which the IC90 is more than 10 µM. For the same compound, under setting [1], the IC50 is more than 10 µM.
For the compound `CS(=O)(=O)c1ccc(N2CCN(c3ccnc4cc(Cl)ccc34)CC2)c([N+](=O)[O-])c1`, the IC90 came to 8.81 µM. For the setting “HEPG2TOX_HILL_SLOPE 8.04, HEPG2TOX_R_SQUARED 0.676, PBLUC_HILL_SLOPE 3.39, PBLUC_R_SQUARED 0.378, read-out: LUCIFERASE INFECTION ASSAY - IC50”, the IC50 was determined as 4.61 µM.
On to `Cn1cc(-c2cnc3cnc(-c4ccsc4)cn23)cn1`, for which the IC90 was more than 11.7 µM. For the setting “HEPG2TOX_HILL_SLOPE 1.9, HEPG2TOX_R_SQUARED 0.409, PBLUC_HILL_SLOPE 1.49, PBLUC_R_SQUARED 0.155, read-out: LUCIFERASE INFECTION ASSAY - IC50”, the IC50 was more than 11.7 µM.
For the compound `O=C(c1cnc2cc3c(cc2c1)OCCCO3)c1cc(F)ccc1O`, the IC90 stood at 3.65 µM. Moreover, under setting [1], the IC50 is 3.12 µM.
For `CCOC(=O)c1ccc(OC(C)C(=O)NC2CCCC(C)C2C)cc1` (configuration not stated) the same measures were more than 10 µM and more than 10 µM.
Take `C#CCNS(=O)(=O)c1ccc(C(=O)Nc2ccccc2O)cc1`: the IC90 is 7.83 µM. For the same compound, the IC50 (PBLUC_HILL_SLOPE 1.57, PBLUC_R_SQUARED 0.611, read-out: LUCIFERASE INFECTION ASSAY - IC50) turned out to be 1.93 µM.
For the compound `O=C1C(=C2NN=NN2c2ccc(-c3ccccc3)cc2)C=Nc2ccccc21`, the IC90 is more than 9.03 µM. The IC50 (PBLUC_HILL_SLOPE 3.52, PBLUC_R_SQUARED 0.301, read-out: LUCIFERASE INFECTION ASSAY - IC50) amounted to 6.48 µM.
Consider `Cc1nc(-c2ccc(CCNC(=O)CN3C(=O)NC(C)(c4ccc5ccccc5c4)C3=O)cc2)cs1` (configuration not stated), for which the IC90 was more than 10 µM. In addition, under setting [1], the IC50 is more than 10 µM.
Take `Clc1ccccc1Nc1cc2c(cn1)ncn2Cc1ccco1`: the IC90 is more than 10 µM. Besides, under “HEPG2TOX_HILL_SLOPE 2.43, HEPG2TOX_R_SQUARED 0.709, PBLUC_HILL_SLOPE 4.59, PBLUC_R_SQUARED 0.452, read-out: LUCIFERASE INFECTION ASSAY - IC50”, the IC50 worked out at 7.52 µM.
Consider `CCOC(=O)CCc1c(C)[nH]n(-c2nc3ccccc3[nH]2)c1=O`, for which the IC90 amounted to 3.53 µM. The IC50 (HEPG2TOX_HILL_SLOPE 1.88, HEPG2TOX_R_SQUARED 0.728, PBLUC_HILL_SLOPE 14.3, PBLUC_R_SQUARED 0.719, read-out: LUCIFERASE INFECTION ASSAY - IC50) is 3.03 µM.
As to `O=C1C(=O)N(Cc2ccccc2Cl)c2c1cccc2C(F)(F)F`, the IC90 was determined as 3.7 µM. For the same compound, the IC50 (FFLUC_HILL_SLOPE 12, FFLUC_R_SQUARED 0.566, HEPG2TOX_HILL_SLOPE 13.8, HEPG2TOX_R_SQUARED 0.966, PBLUC_HILL_SLOPE 12.2, PBLUC_R_SQUARED 0.654, read-out: LUCIFERASE INFECTION ASSAY - IC50) came out at 3.09 µM.
In the case of `CC(Nc1ncnc2ccsc12)c1cccc2ccccc12` (configuration not stated), the IC90 is more than 10 µM. Further, the IC50 under setting [1] was 2.13 µM.
In the case of `Cc1nnc(SCCOc2ccc(C(C)(C)C)cc2)n1C1CCCCC1`, the IC90 was more than 10 µM. For the same compound, the IC50 (HEPG2TOX_HILL_SLOPE 0.16, HEPG2TOX_R_SQUARED 0.182, read-out: LUCIFERASE INFECTION ASSAY - IC50) is more than 10 µM.
`Cc1nc2ccccn2c1C(=O)N/N=C/c1ccccc1O`: the IC90 is more than 11.2 µM. Further, the IC50 under setting [1] was 10.1 µM.

The record behind these values is ChEMBL document CHEMBL4483862, “Open-source discovery of chemical leads for next-generation chemoprotective antimalarials” (2018).
